For the assay, the target named is T1, hα4 and β1 integrins (Homo sapiens, UniProt P05556+P13612).
T1 construct: expressed in transfected cells; host or cells: CHO cells
Kind of assay: In vitro inhibition of binding between CHO cells expressing hα4 and β1 integrins and Eu3+-hVCAM-1 D1D7-IgG. To be noted: for Ki: CHO cells expressing hα4 and β1 integrins, Eu3+-hVCAM-1 D1D7-IgG ligand, without HSA; for IC50: in the presence of 3% human serum albumin (HSA final concentration 3%). A digest of the protocol:
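Transfected CHO cells, cultured 2 days, were incubated with compound and Eu³⁺-hVCAM-1 D1D7-IgG (diluted to 2 nM) for 1 h at room temperature. Buffer was 25 mM HEPES pH 7.5 with 1 mM Ca²⁺, 1 mM Mg²⁺, 4 mM Mn²⁺ and 0.1% BSA, ±3% HSA final. Cells were washed at 4 °C and read by DELFIA time-resolved fluorescence; Ki was derived from IC50 using the Scatchard Kd.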

T1 sequence (P13612 34-1032): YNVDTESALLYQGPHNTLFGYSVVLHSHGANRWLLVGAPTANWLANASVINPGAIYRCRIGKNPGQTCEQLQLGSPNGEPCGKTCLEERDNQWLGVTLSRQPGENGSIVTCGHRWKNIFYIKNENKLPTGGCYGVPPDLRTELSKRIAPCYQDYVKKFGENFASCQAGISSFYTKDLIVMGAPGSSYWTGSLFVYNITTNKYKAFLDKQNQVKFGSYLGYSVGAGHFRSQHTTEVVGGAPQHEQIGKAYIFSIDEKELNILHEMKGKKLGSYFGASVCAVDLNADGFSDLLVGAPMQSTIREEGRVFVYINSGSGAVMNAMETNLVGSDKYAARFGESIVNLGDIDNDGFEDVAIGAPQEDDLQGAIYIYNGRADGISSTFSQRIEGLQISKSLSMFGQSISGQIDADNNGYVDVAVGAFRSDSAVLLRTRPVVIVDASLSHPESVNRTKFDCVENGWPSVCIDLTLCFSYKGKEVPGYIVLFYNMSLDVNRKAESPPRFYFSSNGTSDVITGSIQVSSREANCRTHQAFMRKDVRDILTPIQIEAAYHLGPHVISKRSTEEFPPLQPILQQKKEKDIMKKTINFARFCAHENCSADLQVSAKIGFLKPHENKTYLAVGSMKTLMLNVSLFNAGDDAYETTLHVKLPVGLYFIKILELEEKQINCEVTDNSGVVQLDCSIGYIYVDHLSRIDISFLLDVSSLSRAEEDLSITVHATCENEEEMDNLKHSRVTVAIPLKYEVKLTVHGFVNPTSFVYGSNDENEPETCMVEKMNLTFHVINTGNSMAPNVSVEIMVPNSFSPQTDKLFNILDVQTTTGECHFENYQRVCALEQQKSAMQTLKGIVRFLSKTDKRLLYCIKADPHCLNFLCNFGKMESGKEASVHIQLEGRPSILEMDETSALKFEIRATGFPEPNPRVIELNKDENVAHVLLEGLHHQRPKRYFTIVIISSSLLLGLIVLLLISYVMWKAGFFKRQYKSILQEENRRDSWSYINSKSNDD
T1 sequence (P05556 21-798): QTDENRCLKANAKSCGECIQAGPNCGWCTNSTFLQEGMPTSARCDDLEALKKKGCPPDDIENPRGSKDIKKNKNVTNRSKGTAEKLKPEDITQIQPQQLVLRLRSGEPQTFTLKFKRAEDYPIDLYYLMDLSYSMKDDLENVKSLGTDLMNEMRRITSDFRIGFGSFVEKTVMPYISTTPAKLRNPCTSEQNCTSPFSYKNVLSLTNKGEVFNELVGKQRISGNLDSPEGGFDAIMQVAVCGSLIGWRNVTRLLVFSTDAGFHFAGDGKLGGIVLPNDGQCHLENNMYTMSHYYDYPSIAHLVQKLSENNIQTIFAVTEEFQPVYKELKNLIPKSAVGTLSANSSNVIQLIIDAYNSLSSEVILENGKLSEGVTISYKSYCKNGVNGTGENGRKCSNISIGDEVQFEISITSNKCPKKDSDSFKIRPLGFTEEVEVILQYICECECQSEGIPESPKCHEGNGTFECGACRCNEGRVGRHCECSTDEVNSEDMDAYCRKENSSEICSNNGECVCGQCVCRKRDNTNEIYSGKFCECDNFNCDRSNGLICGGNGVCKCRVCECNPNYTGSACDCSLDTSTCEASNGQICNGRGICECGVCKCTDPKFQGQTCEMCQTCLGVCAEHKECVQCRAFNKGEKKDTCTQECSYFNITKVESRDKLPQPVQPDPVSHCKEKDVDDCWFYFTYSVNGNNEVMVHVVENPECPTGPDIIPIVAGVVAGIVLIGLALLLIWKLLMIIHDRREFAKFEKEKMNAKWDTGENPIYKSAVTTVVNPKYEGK

Regarding `CN1CCN([C@H]2C[C@@H](CO[C@H]3CC[C@H](C(=O)O)CC3)N(C(=O)Cc3cc(Cl)c(NC(=O)c4csc5ccccc45)cc3F)C2)CC1` [Example 111, Trans-4-[1-[[4-[(benzo[b]thiophen-3-ylcarbonyl)amino]-5-chloro-2-fluorophenyl]acetyl]-(4S)-(4-methylpiperazin-1-yl)-(2S)-pyrrolidinylmethoxy]cyclohexanecarboxylic acid], the affinity corresponds to a Ki of 0.29 nM and the IC50 was 1.2 nM.

With `O=C(Nc1cc(Cl)c(CC(=O)N2C[C@@H](N3CCCCC3)C[C@H]2CO[C@H]2CC[C@H](C(=O)O)CC2)cc1Cl)c1csc2ccccc12` [Example 95, Trans-4-[1-[[4-[(benzo[b]thiophen-3-ylcarbonyl)amino]-2,5-dichlorophenyl]acetyl]-(4S)-(piperidin-1-yl)-(2S)-pyrrolidinylmethoxy]cyclohexanecarboxylic acid], the affinity corresponds to a Ki of 1.3 nM and the IC50 turned out to be 5.3 nM.

Regarding `Cn1cc(C(=O)Nc2cc(F)c(CC(=O)N3C[C@@H](N4CCCO4)C[C@H]3CO[C@H]3CC[C@H](C(=O)O)CC3)cc2Cl)c2ccccc21` [Example 69, Trans-4-[1-[[5-chloro-2-fluoro-4-[(1-methyl-1H-indol-3-ylcarbonyl)amino]phenyl]acetyl]-(4S)-(isoxazolidin-2-yl)-(2S)-pyrrolidinylmethoxy]cyclohexanecarboxylic acid], the inhibition constant Ki worked out at 6.1 nM and the IC50 worked out at 66 nM.

Consider `CS(=O)(=O)N1CCCN([C@H]2C[C@@H](CO[C@H]3CC[C@H](C(=O)O)CC3)N(C(=O)Cc3cc(Cl)c(NC(=O)c4coc5ccccc45)cc3F)C2)CC1` [Example 170, Trans-4-[1-[[4-[(benzo[b]furan-3-ylcarbonyl)amino]-5-chloro-2-fluorophenyl]acetyl]-(4S)-(4-methanesulfonyl[1,4]-diazepan-1-yl)-(2S)-pyrrolidinylmethoxy]cyclohexanecarboxylic acid], for which the Ki was 2.6 nM and the 50% inhibitory concentration (IC50) was 11 nM.

Turning to `O=C(Nc1cc(F)c(CC(=O)N2C[C@@H](N3CCN(Cc4ccccc4)CC3)C[C@H]2CO[C@H]2CC[C@H](C(=O)O)CC2)cc1Cl)c1csc2ccccc12` [Example 116, Trans-4-[(4S)-(4-benzylpiperazin-1-yl)-1-[[4-[(benzo[b]thiophen-3-ylcarbonyl)amino]-5-chloro-2-fluorophenyl]acetyl]-(2S)-pyrrolidinylmethoxy]cyclohexanecarboxylic acid], the Ki came to 0.6 nM and the IC50 was 21 nM.

Turning to `O=C(Nc1cc(Cl)c(CC(=O)N2C[C@@H](N3CCN(C4CC4)CC3)C[C@H]2CO[C@H]2CC[C@H](C(=O)O)CC2)cc1Cl)c1csc2ccccc12` [Example 138, Trans-4-[1-[[4-[(benzo[b]thiophen-3-ylcarbonyl)amino]-2,5-dichlorophenyl]acetyl]-(4S)-(4-cyclopropylpiperazin-1-yl)-(2S)-pyrrolidinylmethoxy]cyclohexanecarboxylic acid], the Ki came out at 0.91 nM and the IC50 was 7.7 nM.

Regarding `O=C(Nc1cc(F)c(CC(=O)N2C[C@@H](n3ccnc3)C[C@H]2CO[C@H]2CC[C@H](C(=O)O)CC2)cc1Cl)c1csc2ccccc12` [Example 67, Trans-4-[1-[[4-[(benzo[b]thiophen-3-ylcarbonyl)amino]-5-chloro-2-fluorophenyl]acetyl]-(4S)-(imidazol-1-yl)-(2S)-pyrrolidinylmethoxy]cyclohexanecarboxylic acid], the Ki came to 1.2 nM and the IC50 came out at 12 nM.

On to `O=C(Nc1cc(F)c(CC(=O)N2C[C@@H](N3CCCS3(=O)=O)C[C@H]2CO[C@H]2CC[C@H](C(=O)O)CC2)cc1Cl)c1coc2ccccc12` [Example 70, Trans-4-[1-[[4-[(benzo[b]furan-3-ylcarbonyl)amino]-5-chloro-2-fluorophenyl]acetyl]-(4S)-(1,1-dioxo-1λ^6-isothiazolidin-2-yl)-(2S)-pyrrolidinylmethoxy]cyclohexanecarboxylic acid], for which the Ki is 18 nM and the IC50 came out at 62 nM.

As to `CN(C)S(=O)(=O)N1CCN([C@H]2C[C@@H](CO[C@H]3CC[C@H](C(=O)O)CC3)N(C(=O)Cc3cc(Cl)c(NC(=O)c4cn(C)c5ccccc45)cc3Cl)C2)CC1` [Example 151, Trans-4-[1-[[2,5-dichloro-4-[(1-methyl-1H-indol-3-ylcarbonyl)amino]phenyl]acetyl]-(4S)-(4-N,N-dimethylsulfamoylpiperazin-1-yl)-(2S)-pyrrolidinylmethoxy]cyclohexanecarboxylic acid], the Ki stood at 4.2 nM and the IC50 came out at 26 nM.

As to `CCO[C@H]1[C@H](N2CCCCC2)CN(C(=O)Cc2cc(Cl)c(NC(=O)c3cn(C)c4ccccc34)cc2F)[C@@H]1CO[C@H]1CC[C@H](C(=O)O)CC1` [Example 97, Trans-4-[1-[[5-chloro-2-fluoro-4-[(1-methyl-1H-indol-3-ylcarbonyl)amino]phenyl]acetyl]-(3R)-ethoxy-(4R)-(piperidin-1-yl)-(2R)-pyrrolidinylmethoxy]cyclohexanecarboxylic acid], the affinity corresponds to a Ki of 1.6 nM and the IC50 came to 4.9 nM.

In the case of `Cn1cc(C(=O)Nc2cc(Cl)c(CC(=O)N3C[C@@H](N4CCCCC4)C[C@H]3CO[C@H]3CC[C@H](C(=O)O)CC3)cc2Cl)c2ccccc21` [Example 96, Trans-4-[1-[[2,5-dichloro-4-[(1-methyl-1H-indol-3-ylcarbonyl)amino]phenyl]acetyl]-(4S)-(piperidin-1-yl)-(2S)-pyrrolidinylmethoxy]cyclohexanecarboxylic acid], the affinity, expressed as Ki, was 3.9 nM and the IC50 worked out at 7.4 nM.

As to `CO[C@@H]1CN([C@H]2C[C@@H](CO[C@H]3CC[C@H](C(=O)O)CC3)N(C(=O)Cc3cc(Cl)c(NC(=O)c4coc5ccccc45)cc3Cl)C2)C[C@H]1OC` [Example 65, Trans-4-[1-[[4-[(benzo[b]furan-3-ylcarbonyl)amino]-2,5-dichlorophenyl]acetyl]-(4S)-[(3R,4R)-dimethoxypyrrolidin-1-yl]-(2S)-pyrrolidinylmethoxy]cyclohexanecarboxylic acid], affinity was put at a Ki of 2.9 nM and the IC50 worked out at 35 nM.

On to `O=C(Nc1cc(F)c(CC(=O)N2C[C@@H](N3CCC(F)CC3)C[C@H]2CO[C@H]2CC[C@H](C(=O)O)CC2)cc1Cl)c1csc2ccccc12` [Example 100, Trans-4-[1-[[4-[(benzo[b]thiophen-3-ylcarbonyl)amino]-5-chloro-2-fluorophenyl]acetyl]-(4S)-(4-fluoropiperidin-1-yl)-(2S)-pyrrolidinylmethoxy]cyclohexanecarboxylic acid], for which affinity was put at a Ki of 0.91 nM and the IC50 is 3.9 nM.

`Cn1cc(C(=O)Nc2cc(Cl)c(CC(=O)N3C[C@@H](N4CCC(S(C)(=O)=O)CC4)C[C@H]3CO[C@H]3CC[C@H](C(=O)O)CC3)cc2Cl)c2ccccc21` [Example 108, Trans-4-[1-[[2,5-dichloro-4-[(1-methyl-1H-indol-3-ylcarbonyl)amino]phenyl]acetyl]-(4S)-(4-methanesulfonylpiperidin-1-yl)-(2S)-pyrrolidinylmethoxy]cyclohexanecarboxylic acid]: the affinity corresponds to a Ki of 3.1 nM and the IC50 is 8.2 nM.

With `O=C(Nc1cc(F)c(CC(=O)N2C[C@@H](N3C[C@@H]4CS(=O)(=O)C[C@@H]4C3)C[C@H]2CO[C@H]2CC[C@H](C(=O)O)CC2)cc1Cl)c1coc2ccccc12` [Example 77, Trans-4-[1-[[4-[(benzo[b]furan-3-ylcarbonyl)amino]-5-chloro-2-fluorophenyl]acetyl]-(4S)-[(3a,6a-cis)-hexahydro-2,2-dioxo-2λ^6-thieno[3,4-c]pyrrol-5-yl]-(2S)-pyrrolidinylmethoxy]cyclohexanecarboxylic acid], the Ki amounted to 2 nM and the IC50 worked out at 4.1 nM.

Regarding `O=C(Nc1cc(F)c(CC(=O)N2C[C@@H](N3CCC(F)(F)C3)C[C@H]2CO[C@H]2CC[C@H](C(=O)O)CC2)cc1Cl)c1csc2ccccc12` [Example 38, Trans-4-[1-[[4-[(benzo[b]thiophen-3-ylcarbonyl)amino]-5-chloro-2-fluorophenyl]acetyl]-(4S)-(3,3-difluoropyrrolidin-1-yl)-(2S)-pyrrolidinylmethoxy]cyclohexanecarboxylic acid], affinity was put at a Ki of 1.7 nM and the IC50 was determined as 24 nM.

On to `Cn1cc(C(=O)Nc2cc(Cl)c(CC(=O)N3C[C@@H](N4CC5CC4CO5)C[C@H]3CO[C@H]3CC[C@H](C(=O)O)CC3)cc2Cl)c2ccccc21` (stereo partly drawn) [Example 162, Trans-4-[1-[[2,5-dichloro-4-[1-methyl-1H-indol-3-ylcarbonylamino]phenyl]acetyl]-(4S)-[(1S,4S)-2-oxa-5-azabicyclo[2.2.1]heptan-5-yl]-(2S)-pyrrolidinylmethoxy]cyclohexanecarboxylic acid], for which affinity was put at a Ki of 6.5 nM and the IC50 was 49 nM.

Turning to `CC1CCN([C@H]2C[C@@H](CO[C@H]3CC[C@H](C(=O)O)CC3)N(C(=O)Cc3cc(Cl)c(NC(=O)c4csc5ccccc45)cc3F)C2)CC1` [Example 98, Trans-4-[1-[[4-[(benzo[b]thiophen-3-ylcarbonyl)amino]-5-chloro-2-fluorophenyl]acetyl]-(4S)-(4-methylpiperidin-1-yl)-(2S)-pyrrolidinylmethoxy]cyclohexanecarboxylic acid], affinity was put at a Ki of 0.89 nM and the IC50 is 3 nM.

As to `CCOC1CCN([C@H]2C[C@@H](CO[C@H]3CC[C@H](C(=O)O)CC3)N(C(=O)Cc3cc(Cl)c(NC(=O)c4coc5ccccc45)cc3Cl)C2)CC1` [Example 105, Trans-4-[1-[[4-[(benzo[b]furan-3-ylcarbonyl)amino]-2,5-dichlorophenyl]acetyl]-(4S)-(4-ethoxypiperidin-1-yl)-(2S)-pyrrolidinylmethoxy]cyclohexanecarboxylic acid], the Ki was determined as 2 nM and the IC50 amounted to 15 nM.

Values taken from patent US8129366B2, “VLA-4 inhibitory drug” (Daiichi Sankyo Company, Limited, priority 2005, dated 2012).
